≈ marks a conversion by molar mass, not a printed value.
Tests used:
[1] = system: Salmonella typhimurium; test: Antimicrobial activity against Salmonella enterica serovar Typhimurium transconjugant p61/9T expressing qnrB19 gene variant carried by IncL/M-like plasmid by Etest; assay type: functional, Salmonella enterica subsp. enterica serovar Typhimurium
[2] = system: Salmonella typhimurium; test: Antimicrobial activity against Salmonella enterica serovar Typhimurium STYM61/9 expressing qnrB19 gene variant carried by IncL/M-like plasmid by Etest; assay type: functional, Salmonella enterica subsp. enterica serovar Typhimurium
[3] = system: Escherichia coli; test: Antimicrobial activity against Escherichia coli CSH26RifR receiving qnrB19 gene variant carried by IncL/M-like plasmid from Salmonella enterica serovar Typhimurium STYM61/9 by Etest; assay type: functional

Q: How did the MIC [1] turn out when O=C(O)c1cn(C2CC2)c2cc(N3CCNCC3)c(F)cc2c1=O [CIPROFLOXACIN] was run?
A: 0.19 µg/mL (≈ 0.573 µM)

Q: What about the MIC [2] of the same molecule?
A: 0.38 µg/mL (≈ 1.15 µM)

Q: What does the source list for COc1c(N2C[C@@H]3CCCN[C@@H]3C2)c(F)cc2c(=O)c(C(=O)O)cn(C3CC3)c12 [MOXIFLOXACIN]?
A: MIC [1]: 0.5 µg/mL (≈ 1.25 µM); MIC [2]: 0.5 µg/mL (≈ 1.25 µM); MIC [3]: 0.047 µg/mL (≈ 0.117 µM)

Q: With CCn1cc(C(=O)O)c(=O)c2ccc(C)nc21 [NALIDIXIC ACID] as the molecule, how does the MIC [1] read?
A: 16 µg/mL (≈ 68.9 µM)

Q: What about the MIC [2] of the same molecule?
A: 12 µg/mL (≈ 51.7 µM)

Q: And the MIC [3]?
A: 4 µg/mL (≈ 17.2 µM)

Q: Which results are given for CCn1cc(C(=O)O)c(=O)c2cc(F)c(N3CCNCC3)cc21 [NORFLOXACIN]?
A: MIC [1]: 0.5 µg/mL (≈ 1.57 µM); MIC [2]: 1 µg/mL (≈ 3.13 µM); MIC [3]: 0.064 µg/mL (≈ 0.2 µM)

Q: CC1COc2c(N3CCN(C)CC3)c(F)cc3c(=O)c(C(=O)O)cn1c23 (centres undefined) [OFLOXACIN] was tested. Which MIC [1] did it give?
A: 0.75 µg/mL (≈ 2.08 µM)

Q: What about the MIC [2] of the same molecule?
A: 0.75 µg/mL (≈ 2.08 µM)

Q: And the MIC [3]?
A: 0.064 µg/mL (≈ 0.177 µM)

Reference: ChEMBL document CHEMBL1649567, “Characterization of the plasmid-borne quinolone resistance gene qnrB19 in Salmonella enterica serovar Typhimurium” (2009)
